Laboratory results as given in patent US9181223B2, “2-aminopyrimidin-6-ones and analogs exhibiting anti-cancer and anti-proliferative activities” (Deciphera Pharmaceuticals, LLC, priority 2013, dated 2015).
Where two headings read alike, the source gives them in different places.

Tests used:
[1] = target: T1, unphosphorylated PDGFRβ kinase (uPDGFRβ, Seq. ID No. 3) (Homo sapiens, UniProt P09619); assay: uPDGFRβ kinase assay (ADP production coupled to pyruvate kinase/lactate dehydrogenase); type: biochemical; conditions: enzymatic assay, ATP 500 μM
T1 construct: purchased DeCode
T1 sequence (P09619 557-1106): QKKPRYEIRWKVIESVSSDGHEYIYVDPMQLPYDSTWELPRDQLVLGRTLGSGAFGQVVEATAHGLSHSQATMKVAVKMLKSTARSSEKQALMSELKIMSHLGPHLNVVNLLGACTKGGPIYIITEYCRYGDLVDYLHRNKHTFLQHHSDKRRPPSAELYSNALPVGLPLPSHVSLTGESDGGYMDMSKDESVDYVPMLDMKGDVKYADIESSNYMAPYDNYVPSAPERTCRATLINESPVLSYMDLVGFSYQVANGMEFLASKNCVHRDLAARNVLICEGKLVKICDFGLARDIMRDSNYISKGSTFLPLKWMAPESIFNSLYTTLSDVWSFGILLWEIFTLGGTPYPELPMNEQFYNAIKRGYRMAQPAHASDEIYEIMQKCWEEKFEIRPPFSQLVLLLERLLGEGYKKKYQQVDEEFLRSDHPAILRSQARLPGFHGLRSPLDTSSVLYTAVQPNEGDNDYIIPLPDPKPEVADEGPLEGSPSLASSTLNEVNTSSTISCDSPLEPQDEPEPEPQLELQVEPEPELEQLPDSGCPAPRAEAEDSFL
Protocol: Unphosphorylated […]β) Kinase (Seq. ID No. 3) Assay Activity of unphosphorylated PDGFRβ kinase ([…] No. 3) was determined by following the production of ADP from the kinase reaction with ATP and poly E4Y as substrates through coupling with the pyruvate kinase/lactate dehydrogenase system (e.g., Schindler et al. Science (2000) 289: 1938-1942). In this assay, the oxidation of NADH (thus the decrease at A340 nm) was continuously monitored spectrophometrically. The reaction mixture (100 μL) contained PDGFRβ (DeCode, 15.7 nM), polyE4Y (2.5 mg/mL), MgCl2 (10 mM), pyruvate kinase (4 units), lactate dehydrogenase (0.7 units), phosphoenol pyruvate (1 mM) and NADH (0.28 mM) and ATP (500 μM) in a 90 mM Tris buffer containing 0.2% octyl-glucoside and 1% DMSO, at pH 7.5. The inhibition reaction was started by mixing serial diluted test compound with the above reaction mixture. The absorption at 340 nm was monitored continuously for 4 h at 30° C. on a Polarstar Optima or Synergy 2 plate reader. The reaction rate was calculated using the 1.5 to 2.5 h time frame. Percent inhibition was obtained by comparison of reaction rate with that of a control (i.e. with no test compound). IC50 values were calculated from a series of percent inhibition values determined at a range of inhibitor concentrations using software routines as implemented in the GraphPad Prism software package.

[2] = target: T2, unphosphorylated c-KIT kinase (uKIT, Seq. ID no. 2) (Homo sapiens, UniProt P10721); assay: uKit kinase assay (ADP production coupled to pyruvate kinase/lactate dehydrogenase); type: biochemical; conditions: read-out: uKIT
T2 construct: uKit with N-terminal GST fusion used for screening
T2 sequence (P10721 with tags, fused parts or gaps): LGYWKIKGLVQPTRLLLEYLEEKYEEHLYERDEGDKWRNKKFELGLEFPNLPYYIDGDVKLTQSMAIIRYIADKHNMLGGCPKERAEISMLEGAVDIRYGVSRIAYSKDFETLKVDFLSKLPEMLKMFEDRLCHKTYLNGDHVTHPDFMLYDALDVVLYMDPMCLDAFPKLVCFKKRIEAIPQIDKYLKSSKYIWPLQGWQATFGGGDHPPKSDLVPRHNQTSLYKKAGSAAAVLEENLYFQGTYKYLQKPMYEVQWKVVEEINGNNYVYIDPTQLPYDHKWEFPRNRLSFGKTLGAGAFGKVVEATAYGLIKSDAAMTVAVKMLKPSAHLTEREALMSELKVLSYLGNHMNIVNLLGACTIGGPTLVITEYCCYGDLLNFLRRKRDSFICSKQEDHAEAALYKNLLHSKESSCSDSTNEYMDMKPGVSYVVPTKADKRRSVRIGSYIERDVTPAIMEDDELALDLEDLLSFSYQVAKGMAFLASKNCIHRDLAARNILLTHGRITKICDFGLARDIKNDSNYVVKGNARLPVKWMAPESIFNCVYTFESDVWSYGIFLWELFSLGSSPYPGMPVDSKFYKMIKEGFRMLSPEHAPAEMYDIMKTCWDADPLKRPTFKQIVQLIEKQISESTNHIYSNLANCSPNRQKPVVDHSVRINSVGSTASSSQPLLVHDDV
Protocol: In this assay, the oxidation of NADH (thus the decrease at A340 nm) was continuously monitored spectrophometrically. […] The inhibition reaction was started by mixing serial diluted test compound with the above reaction mixture. The absorption at 340 nm was monitored continuously for 4 hours at 30° C. on Synergy 2 plate reader (BioTech).

osteoclast precursors = assay: Osteoclast tartrate-resistant acid phosphatase assay; type: cell-based; conditions: tartrate-resistant acid phosphatase activity, RANKL and M-CSF, 7-14 days
Protocol: Osteoclast Tartrate-Resistant Acid Phosphatase Assay
A serial dilution of test compound was dispensed into a 384-well black clear bottom plate (Nalge Nunc International, Rochester, N.Y.). Compound was diluted by the addition of DMEM media supplemented with 10% characterized fetal bovine serum (Invitrogen, Carlsbad, Calif.). Diluted compound was transferred to a 384-well black clear bottom plate. Two-thousand five hundred osteoclast precursors (Lonza, Walkersville, Md.) were added per well in growth media containing Receptor Activator of Nuclear Factor Kappa-beta ligand (RANKL) and M-CSF (R&D Systems, Minneapolis, Minn.). Plates were incubated for 7-14 days at 37 degrees Celsius, 5% CO2, and 95% humidity to allow differentiation of osteoclast precursors. At the end of the incubation period, 10 μL of supernatant from each well was transferred to a clear 384-well plate. Tartrate-resistant acid phosphatase activity in the supernatant samples was determined using an acid phosphatase assay kit (Sigma, St. Louis, Mo.). Absorbance was measured at 550 nm using a plate reader. Data was analyzed using Prism software (Graphpad, San Diego, Calif.) to calculate IC50 values.

M-NFS-60 cells = assay: M-NFS-60 cell proliferation assay (resazurin); type: cell-based; conditions: 67 h incubation
Protocol: M-NFS-60 cells (catalog #CRL-1838) were obtained from the American Type Culture Collection (ATCC, Manassas, Va.). Briefly, cells were grown in suspension in RPMI 1640 medium supplemented with 10% characterized fetal bovine serum (Invitrogen, Carlsbad, Calif.), 0.05 mM 2-mercaptoethanol, and 20 ng/mL mouse recombinant macrophage colony stimulating factor (M-CSF) at 37° C., 5% CO2, and 95% humidity. Cells were allowed to expand until reaching saturation at which point they were subcultured or harvested for assay use.
M-NFS-60 Cell Proliferation Assay
A serial dilution of test compound was dispensed into a 384-well black clear bottom plate (Corning, Corning, N.Y.). Two thousand five hundred cells were added per well in 50 μL complete growth medium. Plates were incubated for 67 h at 37° C., 5% CO2, and 95% humidity. At the end of the incubation period 10 μL of a 440 µM solution of resazurin (Sigma, St. Louis, Mo.) in PBS was added to each well and incubated for an additional 5 h at 37° C., 5% CO2, and 95% humidity. Plates were read on a Synergy2 reader (Biotek, Winooski, Vt.) using an excitation of 540 nm and an emission of 600 nm. IC50 values were calculated from a series of percent inhibition values determined at a range of inhibitor concentrations using software routines as implemented in the GraphPad Prism software package.

SMILES	IC50 [1] [nM]	IC50 [2] [nM]	IC50 (osteoclast precursors) [nM]	IC50 ([2]; enzymatic assay, ATP 2000 μM) [nM]	IC50 (M-NFS-60 cells) [nM]
Cc1nc(-c2cnc(N3CCCC3)[nH]c2=O)ccc1Oc1ccnc(-c2cnn(C)c2)c1 [Example 9, 5-(6-methyl-5-((2-(1-methyl-1H-pyrazol-4-yl)pyridin-4-yl)oxy)pyridin-2-yl)-2-(pyrrolidin-1-yl)pyrimidin-4(3H)-one]	> 1000	> 1000	10 to 100	–	–
Cc1nc(-c2cnc(NC(C)C)[nH]c2=O)ccc1Oc1ccnc(-c2cnn(C)c2)c1 [Example 3, 2-(isopropylamino)-5-(6-methyl-5-((2-(1-methyl-1H-pyrazol-4-yl)pyridin-4-yl)oxy)pyridin-2-yl)pyrimidin-4(3H)-one]	> 1000	–	10 to 100	100 to 1000	–
COCCNc1ncc(-c2ccc(Oc3ccnc(-c4cnn(C)c4)c3)c(C)n2)c(=O)[nH]1 [Example 6, 2-((2-methoxyethyl)amino)-5-(6-methyl-5-((2-(1-methyl-1H-pyrazol-4-yl)pyridin-4-yl)oxy)pyridin-2-yl)pyrimidin-4(3H)-one]	> 1000	–	10 to 100	100 to 1000	100 to 1000
CNC(=O)c1cc(Oc2ccc(-c3cnc(NC(C)C)[nH]c3=O)nc2)ccn1 [Example 11, 4-((6-(2-(isopropylamino)-6-oxo-1,6-dihydropyrimidin-5-yl)pyridin-3-yl)oxy)-N-methylpicolinamide]	> 1000	–	10 to 100	> 1000	–
Cc1nc(-c2cnc(N(C)C)[nH]c2=O)ccc1Oc1ccnc(-c2cnn(C)c2)c1 [Example 2, 2-(dimethylamino)-5-(6-methyl-5-((2-(1-methyl-1H-pyrazol-4-yl)pyridin-4-yl)oxy)pyridin-2-yl)pyrimidin-4(3H)-one]	> 1000	–	10 to 100	> 1000	–
CCNc1ncc(-c2ccc(Oc3ccnc(-c4cnn(C)c4)c3)cn2)c(=O)[nH]1 [Example 8, 2-(ethylamino)-5-(5-((2-(1-methyl-1H-pyrazol-4-yl)pyridin-4-yl)oxy)pyridin-2-yl)pyrimidin-4(3H)-one]	> 1000	–	100 to 1000	100 to 1000	–
COCCNc1ncc(-c2ccc(Oc3ccnc(-c4cnn(C)c4)c3)c(C)n2)c(=O)n1C [Example 26, 2-((2-methoxyethyl)amino)-3-methyl-5-(6-methyl-5-((2-(1-methyl-1H-pyrazol-4-yl)pyridin-4-yl)oxy)pyridin-2-yl)pyrimidin-4(3H)-one]	> 1000	–	10 to 100	> 1000	10 to 100
CCNc1ncc(-c2ccc(Oc3ccnc(-c4cnn(C)c4)c3)c(C)n2)c(=O)[nH]1 [Example 1, 2-(ethylamino)-5-(6-methyl-5-((2-(1-methyl-1H-pyrazol-4-yl)pyridin-4-yl)oxy)pyridin-2-yl)pyrimidin-4(3H)-one]	> 1000	–	10 to 100	> 1000	–
CCn1cc(-c2cc(Oc3ccc(-c4cnc(NC(C)C)[nH]c4=O)nc3C)ccn2)cn1 [Example 21, 5-(5-((2-(1-ethyl-1H-pyrazol-4-yl)pyridin-4-yl)oxy)-6-methylpyridin-2-yl)-2-(isopropylamino)pyrimidin-4(3H)-one]	> 1000	–	10 to 100	> 1000	–
Cc1nc(-c2cnc(N3CCCCC3)[nH]c2=O)ccc1Oc1ccnc(-c2cnn(C)c2)c1 [Example 13, 5-(6-methyl-5-((2-(1-methyl-1H-pyrazol-4-yl)pyridin-4-yl)oxy)pyridin-2-yl)-2-(piperidin-1-yl)pyrimidin-4(3H)-one]	> 1000	–	10 to 100	> 1000	–
CC(=O)Nc1cc(Oc2ccc(-c3cnc(NC(C)C)[nH]c3=O)nc2C)ccn1 [Example 19, N-(4-((6-(2-(isopropylamino)-6-oxo-1,6-dihydropyrimidin-5-yl)-2-methylpyridin-3-yl)oxy)pyridin-2-yl)acetamide]	100 to 1000	–	10 to 100	100 to 1000	–
CCNc1ncc(-c2ccc(Oc3ccnc(-n4cnc(C)c4)c3)c(C)n2)c(=O)[nH]1 [Example 5, 2-(ethylamino)-5-(6-methyl-5-((2-(4-methyl-1H-imidazol-1-yl)pyridin-4-yl)oxy)pyridin-2-yl)pyrimidin-4(3H)-one]	> 1000	–	100 to 1000	> 1000	–
Cc1nc(-c2cnc(NC3CCCC3)[nH]c2=O)ccc1Oc1ccnc(-c2cnn(C)c2)c1 [Example 15, 2-(cyclopentylamino)-5-(6-methyl-5-((2-(1-methyl-1H-pyrazol-4-yl)pyridin-4-yl)oxy)pyridin-2-yl)pyrimidin-4(3H)-one]	100 to 1000	–	< 10	100 to 1000	–
Cc1nc(-c2cnc(NC3CCOCC3)[nH]c2=O)ccc1Oc1ccnc(-c2cnn(C)c2)c1 [Example 27, 5-(6-methyl-5-((2-(1-methyl-1H-pyrazol-4-yl)pyridin-4-yl)oxy)pyridin-2-yl)-2-((tetrahydro-2H-pyran-4-yl)amino)pyrimidin-4(3H)-one]	> 1000	–	10 to 100	> 1000	–
Cc1nc(-c2cnc(NC3CC3)n(C)c2=O)ccc1Oc1ccnc(-c2cnn(C)c2)c1 [Example 17, 2-(cyclopropylamino)-3-methyl-5-(6-methyl-5-((2-(1-methyl-1H-pyrazol-4-yl)pyridin-4-yl)oxy)pyridin-2-yl)pyrimidin-4(3H)-one]	> 1000	–	< 10	> 1000	–
Cc1cc(-c2cnc(N3CCCC3)[nH]c2=O)ncc1Oc1ccnc(-c2cnn(C)c2)c1 [Example 20, 5-(4-methyl-5-((2-(1-methyl-1H-pyrazol-4-yl)pyridin-4-yl)oxy)pyridin-2-yl)-2-(pyrrolidin-1-yl)pyrimidin-4(3H)-one]	100 to 1000	–	< 10	100 to 1000	–
Cc1nc(-c2cnc(N3CCOCC3)[nH]c2=O)ccc1Oc1ccnc(-c2cnn(C)c2)c1 [Example 12, 5-(6-methyl-5-((2-(1-methyl-1H-pyrazol-4-yl)pyridin-4-yl)oxy)pyridin-2-yl)-2-morpholinopyrimidin-4(3H)-one]	> 1000	–	10 to 100	> 1000	–
CNc1ncc(-c2ccc(Oc3ccnc(-c4cnn(C)c4)c3)c(C)n2)c(=O)[nH]1 [Example 7, 5-(6-methyl-5-((2-(1-methyl-1H-pyrazol-4-yl)pyridin-4-yl)oxy)pyridin-2-yl)-2-(methylamino)pyrimidin-4(3H)-one]	> 1000	–	100 to 1000	100 to 1000	–
Cc1nc(-c2cnc(NC3CC3)[nH]c2=O)ccc1Oc1ccnc(-c2cnn(C)c2)c1 [Example 14, 2-(cyclopropylamino)-5-(6-methyl-5-((2-(1-methyl-1H-pyrazol-4-yl)pyridin-4-yl)oxy)pyridin-2-yl)pyrimidin-4(3H)-one]	> 1000	–	10 to 100	> 1000	–
CCNc1ncc(-c2ccc(Oc3ccnc(-c4ccc(C)nc4)c3)c(C)n2)c(=O)[nH]1 [Example 4, 2-(ethylamino)-5-(6-methyl-5-((6′-methyl-[2,3′-bipyridin]-4-yl)oxy)pyridin-2-yl)pyrimidin-4(3H)-one]	> 1000	–	100 to 1000	> 1000	–
